Source: PMC4911353, “Pharmacologic Inhibition of Host Phosphodiesterase-4 Improves Isoniazid-Mediated Clearance of Mycobacterium tuberculosis” (Frontiers in Immunology, 2016)

Tested on: Mtb-infected mouse lungs
Experiment: Genome-wide lung transcriptome (microarray, IPA network/GO analysis) of Mtb-infected mice
Format: in vivo
Conditions: TNF-a regulon network

CCOc1cc([C@@H](CS(C)(=O)=O)N2Cc3cccc(NC(=O)C4CC4)c3C2=O)ccc1OC [CC-11050, N-[2-[(1S)-1-(3-ethoxy-4-methoxyphenyl)-2-(methylsulfonyl)ethyl]-2,3-dihydro-3-oxo-1H-isoindol-4-yl]-(9Cl) cyclopropanecarboxamide]
1.622: HSD11B1 expression
1.2: OGN expression
1.533: LOX expression
-1.132: MAP4K4 expression
1.461: LYVE1 expression
1.1811: NME3 expression
1.266: FGF2 expression
-1.15: NFKBIZ expression
0: ENTPD5 expression | ERCC1 expression | ERG expression | ESM1 expression | FABP1 expression | FABP4 expression | FBL expression | FBXO32 expression | FCER1G expression | FCER2 expression | FGF10 expression | FGF18 expression | FGFRL1 expression | FMO1 expression | FN1 expression | FNBP1 expression | FOXO4 expression | FPR1 expression | FUT4 expression | GAB1 expression | GBP2 expression | GCLM expression | GHR expression | GNAI1 expression | GNB4 expression | GNL1 expression | GOSR2 expression | GPD1 expression | GPR126 expression | GPR176 expression | GRIA1 expression | GRN expression | GSTM2 expression | GUSB expression | Gbp2 expression | Gbp4 expression | Gbp6 (includes others) expression | Gsta4 expression | H2-Q4 expression | HAPLN1 expression | HERC1 expression | HES1 expression | HEXB expression | HIF1A expression | HIPK3 expression | HIVEP1 expression | HK2 expression | HK3 expression | HLA-B expression | HLA-C expression | HLA-DRA expression | HLA-E expression | HLA-F expression | HMGN2 expression | HPGD expression | HPGDS expression | HPRT1 expression | HSD3B2 expression | IDH2 expression | IDO1 expression | IFIH1 expression | IFIT1B expression | IFNAR2 expression | IGFBP5 expression | IGFBP6 expression | IL1RN expression | IL2RA expression | IL10RA expression | IL17RD expression | IL18BP expression | IL21R expression | IL21 expression | INHBA expression | IRF1 expression | IRF5 expression | IRF7 expression | IRF8 expression | IRG1 expression | ISG15 expression | ITGA4 expression | ITGAL expression | ITGAM expression | ITGB2 expression | ITGB7 expression | Ifi204 (includes others) expression | KCNJ1 expression | KDR expression | KIF20A expression | KITLG expression | KRT23 expression | KYNU expression | LAMP3 expression | LCAT expression | LCN2 expression | LEP expression | LGALS12 expression | LITAF expression | LOC653486/SCGB1C1 expression | LPL expression | LRRC8C expression | LTB expression | LXN expression | MAN1C1 expression | MAPKAP1 expression | MARCKSL1 expression | MCL1 expression | MCM3 expression | MEFV expression | MEOX1 expression | MEOX2 expression | MMP8 expression | MMP13 expression | MMP16 expression | MMP28 expression | MPC1 expression | MSR1 expression | MUC4 expression | MVP expression | MYO9B expression | NAGLU expression | NAIP expression | NAMPT expression | NCAM1 expression | NCF2 expression | NCOA2 expression | NFATC1 expression | NFKB2 expression | NFKBIA expression | NFKBIE expression | NFRKB expression | NNMT expression | NPM3 expression | NPPA expression | NR4A1 expression | NR4A3 expression | NRP1 expression | NTN1 expression | NUAK1 expression | NUAK2 expression | Nppb expression | OAS1 expression | OAS2 expression | OAS3 expression | OASL expression | OCLN expression | OLFML2B expression | OLR1 expression | P2RY6 expression | PAFAH2 expression | PC expression | PCBP2 expression | PCDH7 expression | PCK1 expression
1.521: ID1 expression
1.207: MMP7 expression
1.276: KLF7 expression
1.249: GSTT1 expression
1.176: MAP2K3 expression
-1.086: NEDD9 expression
1.476: KLF10 expression
